Data: patent US8012959B2, “Diaminopyrimidinecarboxamide derivative” (Astellas Pharma Inc., priority 2002, dated 2011)
Where a name gives a salt, the structure may show the parent alone.

What was measured:
STAT 6 [1] = biological target: T1, STAT 6 (Homo sapiens, UniProt P42226); assay: STAT 6 tyrosine phosphorylation in IL-4-stimulated H292 cell (western blotting); format: cell-based; details: 1 μM compound, 10 ng/ml human IL-4, disappearance of the about 110 kDa band
T1 construct: host or cells: H292
T1 sequence (P42226 1-847): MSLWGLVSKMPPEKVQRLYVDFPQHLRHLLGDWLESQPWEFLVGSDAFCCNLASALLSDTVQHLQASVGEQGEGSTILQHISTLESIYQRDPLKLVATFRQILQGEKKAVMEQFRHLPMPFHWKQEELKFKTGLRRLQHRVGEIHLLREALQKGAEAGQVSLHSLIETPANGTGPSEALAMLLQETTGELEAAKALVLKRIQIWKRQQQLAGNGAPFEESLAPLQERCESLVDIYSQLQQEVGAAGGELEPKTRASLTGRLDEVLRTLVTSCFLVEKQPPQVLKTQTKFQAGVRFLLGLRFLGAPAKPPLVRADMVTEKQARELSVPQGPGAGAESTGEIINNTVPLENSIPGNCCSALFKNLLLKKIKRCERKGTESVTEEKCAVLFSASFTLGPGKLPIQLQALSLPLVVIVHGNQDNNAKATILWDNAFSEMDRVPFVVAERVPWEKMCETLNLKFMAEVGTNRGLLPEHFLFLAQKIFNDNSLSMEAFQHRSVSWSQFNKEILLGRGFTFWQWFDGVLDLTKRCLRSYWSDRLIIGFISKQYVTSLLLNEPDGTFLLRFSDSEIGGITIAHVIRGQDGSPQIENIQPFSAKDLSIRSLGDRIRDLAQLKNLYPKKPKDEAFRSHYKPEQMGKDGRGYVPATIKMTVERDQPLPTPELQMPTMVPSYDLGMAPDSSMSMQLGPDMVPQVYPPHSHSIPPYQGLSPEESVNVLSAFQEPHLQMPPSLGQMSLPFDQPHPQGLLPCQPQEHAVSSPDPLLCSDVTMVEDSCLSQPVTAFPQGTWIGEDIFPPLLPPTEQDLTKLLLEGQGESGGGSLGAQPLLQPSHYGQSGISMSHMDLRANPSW
Protocol: Measurement of STAT 6 Tyrosine Phosphorylation
The H292 cell (ATCC) (5×10^5 cells/0.5 ml) was inoculated into a 12 well plate (IWAKI) and cultured overnight, and then stimulation with 10 ng/ml of human IL-4 (Genzyme techne) was carried out. In the case of the evaluation of compounds, compound dilutions were added to the wells 20 minutes before the IL-4 stimulation. Also, regarding the dilution of compounds, dilution was carried out using 10% FBS-containing RPMI 1640 such that the final concentration of DMSO in which each compound was dissolved became 0.1% or less. This was washed three times with ice-cooled physiological phosphate buffer 20 minutes after the IL-4 stimulation. After the washing, 100 μl/well of a cell lysis solution (TNE buffer: 10 mM Tris-HCl pH 7.8, 1% NP-40, 0.15 M NaCl, 1 mM EDTA, 10 μg/ml aprotinin, 1 mM NaF and 1 mM Na3VO4) was added. The cell lysate was recovered, and 15 μl thereof was subjected to western blotting after SDS electrophoresis using an anti-tyrosine phosphorylated STAT 6 antibody (Cell Signaling). Whether or not the tyrosine phosphorylation band of about 110 kDa is disappeared, which is IL-4 stimulation-dependently detected, was judged. Also, uniform transference of the STAT 6 protein was confirmed using the same transfer membrane by western blotting which used an anti-STAT 6 antibody (SantaCruz).

STAT 6 [2] = biological target: T2, STAT 6 (Mus musculus, UniProt P52633); assay: STAT 6-dependent reporter activity (IL-4-stimulated CI/FW4 luciferase reporter cell); format: cell-based, human; details: for Inh (%) 0.1 μM / inhibition at 0.1 µM: inhibition ratio at 0.1 μM compound; for Inh (%) 0.1 μM / Inh (%) 1 μM / inhibition at 0.1 µM / inhibition at 1 µM: IL-4-stimulated CI/FW4 cell, luciferase; for Inh (%) 1 μM / inhibition at 1 µM: inhibition ratio at 1 μM compound; for inhibition of STAT 6-dependent reporter activity (activity similar to the compounds of Table 26): CI/FW4 cell, 10 ng/ml human IL-4, luciferase
T2 construct: An STAT 6 reporter cell CI/FW4 was constructed by the above operation; endogenous in cells; host or cells: CI/FW4 (FW4 cell stably carrying the pGL2-CI/bs luciferase reporter)
T2 sequence (P52633 1-837): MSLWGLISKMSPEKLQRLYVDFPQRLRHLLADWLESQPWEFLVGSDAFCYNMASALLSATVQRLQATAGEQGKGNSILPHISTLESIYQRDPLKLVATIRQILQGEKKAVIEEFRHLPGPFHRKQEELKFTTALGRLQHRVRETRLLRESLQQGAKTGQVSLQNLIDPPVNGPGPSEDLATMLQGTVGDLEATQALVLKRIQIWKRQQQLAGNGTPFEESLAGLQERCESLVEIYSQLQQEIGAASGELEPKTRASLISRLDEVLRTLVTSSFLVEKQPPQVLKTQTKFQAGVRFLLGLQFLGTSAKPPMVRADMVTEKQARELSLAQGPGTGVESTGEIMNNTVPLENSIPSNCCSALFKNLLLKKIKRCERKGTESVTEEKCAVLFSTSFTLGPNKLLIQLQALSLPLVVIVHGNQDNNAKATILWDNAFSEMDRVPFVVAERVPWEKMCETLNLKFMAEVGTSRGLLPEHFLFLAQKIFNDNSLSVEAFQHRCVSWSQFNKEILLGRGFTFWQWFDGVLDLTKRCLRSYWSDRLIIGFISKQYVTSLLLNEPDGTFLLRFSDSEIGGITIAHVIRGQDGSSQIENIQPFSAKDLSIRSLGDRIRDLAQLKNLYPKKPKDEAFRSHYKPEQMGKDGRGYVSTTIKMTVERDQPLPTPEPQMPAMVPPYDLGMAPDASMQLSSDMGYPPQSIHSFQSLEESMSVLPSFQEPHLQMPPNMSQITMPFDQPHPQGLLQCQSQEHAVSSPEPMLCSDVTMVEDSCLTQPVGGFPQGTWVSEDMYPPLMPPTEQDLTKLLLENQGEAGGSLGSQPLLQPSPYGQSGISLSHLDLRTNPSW
Protocol: Measurement of STAT 6-Dependent Reporter Activity 1) Construction of STAT 6 Reactive Reporter Plasmid A STAT 6 reporter plasmid pGL2-CI was prepared by the following method. […] Also, […] sequence DNA molecules (SEQ ID NOs:3 and 4) contained in the adenovirus major late promoter were annealed and inserted into BglII and HindIII sites of the same vector. Thereafter, pGL2-CI/bs was constructed by inserting the blasticidin resistance gene of pUCSV-BD (Funakoshi) into BamHI site of the constructed pGL2-CI. 2) Construction of STAT 6 Reporter Cell Gene transfer of […] into a human IL-4 reactive cell FW4 cell (Mol. Cell. Biol., 14: 5433-5440) was carried out by the electroporation method (320 V, 960 μF/0.4 cm cuvette (Nippon Bio-Rad Laboratories)), and 6 μg/ml of blasticidin (Funakoshi) was added 40 hours thereafter to select a resistant cell. Confirmation of constant transfer of the reporter plasmid was carried out by detecting luciferase induce by IL-4 stimulation. An STAT 6 reporter cell CI/FW4 was constructed by the above operation. 3) STAT Reporter Assay Using CI/FW4 Cell Stimulation of the CI/FW4 cell (1×10^4 cells/0.1 ml) with 10 ng/ml of human IL-4 (Genzyme Techne) was carried out using a white 96 well plate (Nunc). In the case of the evaluation of compounds, compound dilutions were added to the wells before inoculating the cells into the 96 well plate. […] Thereafter, 50 μl of a luciferase substrate solution (10 mM Tris-HCl pH 7.8, 5 mM luciferin, 2 mM coenzyme A, 2 mM ATP, 0.5 mM MgCl2 and 2 mM Mg(OH)2) was added, followed by stirring for 1 minute. Then, the luciferase activity was measured using ML3000 luminometer (Dynatech Laboratories, Inc). Inhibitory activities of tested compounds were evaluated in which the luminescence intensity (relative light unit: […] The results are shown in the following Table 26.

SMILES | inhibition of STAT 6 tyrosine phosphorylation (STAT 6 [1]) | Inh (%) 0.1 μM (STAT 6 [2]) [%] | Inh (%) 1 μM (STAT 6 [2]) [%] | inhibition at 0.1 µM (STAT 6 [2]) [%] | inhibition at 1 µM (STAT 6 [2]) [%] | inhibition of STAT 6-dependent reporter activity (activity similar to the compounds of Table 26) (STAT 6 [2])
Cl.Cl.NC(=O)CN1CCN(c2ccc(Nc3ncc(C(N)=O)c(NCc4c(F)ccc(F)c4F)n3)cc2)CC1 [Example 201] | completely inhibited | 100 | 100 | – | – | –
CCOC(=O)CN1CCN(c2ccc(Nc3ncc(C(N)=O)c(NCc4c(F)ccc(F)c4F)n3)cc2)CC1 [Example 189] | completely inhibited | 100 | 100 | – | – | –
CNC(=O)c1cnc(NCCc2cc(Cl)c(O)c(Cl)c2)nc1Nc1cccc(C)c1 [Example 2, 2-{[2-(3,5-dichloro-4-hydroxyphenyl)ethyl]amino}-N-methyl-4-[(3-methylphenyl)amino]pyrimidine-5-carboxamide] | – | – | – | 48 | 96 | –
CN(C)CC(=O)N1CCN(c2ccc(Nc3ncc(C(N)=O)c(NCc4ccccc4)n3)cc2)CC1.Cl.Cl [Example 148] | completely inhibited | 94 | 100 | – | – | –
NC(=O)c1cnc(Nc2ccc(N3CCOCC3)cc2)nc1NCc1cc(Cl)ccc1F [Example 39] | – | 100 | 100 | – | – | –
COC1CCCN(c2ccc(Nc3ncc(C(N)=O)c(NCc4c(F)ccc(F)c4F)n3)cc2)C1.Cl.Cl (stereo not drawn) [Example 192] | completely inhibited | 100 | 100 | – | – | –
NC(=O)c1cnc(Nc2ccc(N3CCOCC3)cc2)nc1NC1CCCCC1 [Production Example 12, 4-cyclohexylamino-2-[(4-morpholinophenyl)amino]pyrimidine-5-carboxamide] | – | – | – | 91 | 100 | –
Cc1cccc(Nc2nc(NCCc3ccc(O)c(Br)c3)ncc2C(N)=O)c1 [Production Example 1, 2-{[2-(3-bromo-4-hydroxyphenyl)ethyl]amino}-4-[(3-methylphenyl)amino]pyrimidine-5-carboxamide] | – | – | – | 67 | 100 | –
NC(=O)c1cnc(Nc2ccc(N3CCOCC3)c(F)c2)nc1NCc1c(F)cccc1F [Example 244] | – | 97 | 100 | – | – | –
NC(=O)c1cnc(Nc2ccc(N3CCOCC3)cc2)nc1NCc1c(F)cccc1Cl [Example 58] | – | – | – | – | – | good activity
CN(CC1CN(c2ccc(Nc3ncc(C(N)=O)c(NCc4ccccc4)n3)cc2)CCO1)S(C)(=O)=O.Cl (stereo not drawn) [Example 180] | – | 91 | 100 | – | – | –
NC(=O)c1cnc(Nc2ccc(OC3OC(CO)C(O)C(O)C3O)cc2)nc1NCc1c(F)ccc(F)c1F (stereo not drawn) [Example 233] | – | 25 | 100 | – | – | –
Cl.NC(=O)c1cnc(Nc2ccc(N3CCCOCC3)cc2)nc1NCc1c(F)ccc(F)c1F [Example 191] | completely inhibited | 100 | 100 | – | – | –
NC(=O)c1cnc(Nc2ccc(N3CCOCC3)c(F)c2)nc1NCc1ccccc1 [Example 239] | – | – | – | – | – | good activity
NC(=O)c1cnc(Nc2ccc(N3CCN(CC(=O)O)CC3)cc2)nc1NCc1c(F)ccc(F)c1F [Example 190] | completely inhibited | 100 | 100 | – | – | –
Cc1cccc(Nc2nc(Nc3ccc(CN(C)C)cc3)ncc2C(N)=O)c1 [Production Example 9, 2-({4-[(dimethylamino)methyl]phenyl}amino)-4-[(3-methylphenyl)amino]pyrimidine-5-carboxamide dihydrochloride] | – | – | – | 33 | 91 | –
